Data: publication PMC8916850, “Preparation of Spice Extracts: Evaluation of Their Phytochemical, Antioxidant, Antityrosinase, and Anti-α-Glucosidase Properties Exploring Their Mechanism of Enzyme Inhibition with Antibrowning and Antidiabetic Studies In Vivo” (BioMed Research International, 2022)

Molecular target: T1, Mushroom tyrosinase
T1 construct: gene PPO1
Assay: dopachrome formation, absorbance at […] nm
Format: biochemical
Conditions: L-DOPA 0.85 mM, phosphate buffer 20 mM pH 6.8, 37 °C; 10 min preincubation; methods name kojic acid as the standard, table and text name hydroquinone

- MeOH: 131.34 ± 9.82 µg/mL
Compound: Oc1ccc(O)cc1 [hydroquinone]
